Measurements reported in publication PMC11928584, “H105A peptide eye drops promote photoreceptor survival in murine and human models of retinal degeneration” (Communications Medicine, 2025).
Where a SMILES comes first, the peptide text is derived from it.

How the values were obtained:
Type in all cases: in vivo, mouse
[1] = tested on: photoreceptors of rd10 mice; test: PSVue-550 fluorescence fundoscopy of photoreceptor cell death (PS externalization); settings: daily eye drops 5 µl of 1 mg/ml from P15, PSVue-550 fundoscopy P21
Source text: (§1) Fluorescence fundoscopy with a cell death probe was chosen as a simple method for monitoring photoreceptor cell death in alive animals. A fluorescent probe, bis (zinc^2+-dipicolylamine)-550, (PSVue®-550) (Molecular Targeting Technologies Inc, cat. P-1005) was reconstituted in Hanks’ Balanced Salt Solution (HBSS, Quality Biological, cat. 114-062-101) according to the manufacturer’s instructions[28],[36]. This probe is suitable for in vivo use to specifically and transiently label dying photoreceptors, such as in living rats with retinal degeneration the Royal College of Surgeons rat model, in a non-invasive and non-toxic method without the need of intraocular injection. Briefly, a stock of 1 mM solution of PSVue®-550 was stored in the dark at 4 °C and used within 14 days directly as eye drop. After 3-4 h of light onset each mouse received eye drops of 5–10 μl of 1 mM PSVue®-550 in the left eye and HBSS in the right eye as control. The eye drop volume was chosen such that the eye cavity was filled without spillage outside the eye, and it was modified depending on eye size. […] To obtain in vivo retinal images of fundi, at 24 h after the probe was administered, the mice were anesthetized, and pupils were dilated with 1% tropicamide for 5 min and kept hydrated with GenTeal. Fluorescence was imaged using a retinal imaging microscope (Micron III, Phoenix Research Labs) using an FF02- 475/50 nm excitation filter (Semrock, Inc.). We observed some variability in optic nerve (ON) fluorescence that could not be readily explained, so the optic nerve was excluded from analyses in all samples.
(§2) To determine the natural history of photoreceptor death of rd10 and rd10/Serpinf1^-/- mice, we assessed photoreceptor cell death in live mice using the fluorescent probe termed PSVue® 550 to monitor PS externalization by fluorescence fundoscopy (Supplementary Fig. 2). Given the reports about the retinas of rd10 mice starting to show histological changes at P16, and with a peak in the number of TUNEL+ nuclei in the ONL at P17-18[13], we monitored PS externalization in photoreceptors of these mice undergoing degeneration before death onset. Eye drops of 1 mM PSVue® 550 solution in HBSS were administered to left eyes and HBSS (vehicle) to their contralateral right eyes of each mouse at ages P16, P20, P22 or P24. PS externalization was determined by fluorescence fundoscopy 24 h post-administration. PSVue labeling of phosphatidylserine (PS) externalization associated with photoreceptor cell death in the rd10 retina (Supplementary Figs. 2, 3).
(§3) Fig. 2 Effect of PEDF peptide eye drops on protection against photoreceptor cell death in rd10 and rd10/Serpinf1^-/- mice. a Illustration of the experimental timeline of peptide application. Eye drops containing 5 µl of 17-mer, H105A, or R99A peptides in HBSS were administered daily to eyes of rd10 and rd10/Serpinf1^-/- mice from P15 to P20. Vehicle (HBSS) was applied in contralateral eyes. At P20, PSVue® was applied via eye drops, and fluorescence fundoscopy was conducted at P21 to assess photoreceptor cell death. RE and LE refer to the right and left eyes, respectively. b Fluorescence fundoscopy micrographs. Representative fluorescence fundoscopy images of retinas from mice treated as in Panel a with eyedrops of 1 mg/ml of each peptide. Quantification of fluorescence intensity was performed using ImageJ, with average intensity values corrected for background fluorescence from eyes that had not received PSVue or peptides. Each line represents data from one animal comparing treated and contralateral eyes, with five eyes (n = 5) per condition. Statistical significance was determined by paired t-test (****p ≤ 0.0001, and ns > 0.05). Scale bar = 0.5 mm. c Dose response of peptide eye drops. Representative fluorescence fundoscopy micrographs showing retinas treated with varying concentrations of 17-mer and H105A peptides (0.0 mg/ml to 1.0 mg/ml) in rd10 and rd10/Serpinf1^-/- mice. […]

[2] = tested on: photoreceptors of rd10/Serpinf1-/- mice; test: as above; settings: daily eye drops 5 µl of 1 mg/ml from P15, PSVue-550 fundoscopy P21
Source text: as §1, §2, §3

[3] = tested on: retinal function of rd10 mice; test: Electroretinogram (scotopic a- and b-wave), rd10 mice; settings: daily eye drops of labeled peptide P15-P20, ERG P21, n=3
Procedure: Electroretinogram (ERG) for rd10 and rd10/Serpinf1^-/- mice were dark-adapted overnight and recorded in both eyes of each animal using an Espion E2 system with ColorDome (Diagnosys LLC) with a heated surface. Briefly, pupils were dilated with 1% tropicamide (Akorn, NDC: 17478-101-12) for 10 min and mice were anesthetized with intraperitoneal injection of Zetamine™ (Ketamine hydrochloride injection, USP; VetOne, NDC 13985-584-10) at 92.5 mg/kg, and AnaSed® (xylazine injection, Akorn Pharmaceuticals, NDC 59399-110-20) at 5.5 mg/kg. Mice were placed on the heated surface and electrodes were placed in the mouth and a subdermal platinum needle electrode was placed in the back of the mouse to serve as ground. Responses were elicited with increasing light impulses with intensity from 0.0001 to 10 cd-seconds per meter squared (cd.s/m^2). Amplitudes for a-wave were measured from stimulus to the trough of the a-wave and b-wave amplitudes were measured from a-wave to b-wave trough or peak. The values from the a and b waves for both eyes were exported to Microsoft Excel to obtained amplitude values for each mouse.
Fig. 5 Effect of daily eyedrops of PEDF peptides on ERG a-wave and b-wave retinal function. a Illustration of the experimental timeline of peptide application. RE and LE refer to the right and left eyes, respectively. Representative ERG waveforms for rd10 (b) and rd10/Serpinf1^-/- (c) mice at P21 in response to a light flash (1 cd.s/m²). Amplitude (y-axis) is plotted against time in milliseconds (ms, x-axis). Treatments are indicated to the right of each plot and are color coded, with control wild type C57BL/6 J mice without peptide treatment shown in blue. A-wave and b-wave are indicated by arrows. Photoreceptor a-wave amplitudes. Averages of photoreceptor a-wave amplitudes for rd10 (d) and rd10/Serpinf1^-/- (e) mice as a function of light intensity (cd/s.m², x-axis). Responses of animals treated with 17-mer are shown in green, H105A in black, and vehicle (HBSS) in red. Wildtype responses are shown in blue. Bipolar cell b-wave amplitudes. Averages of bipolar cell b-wave amplitudes for rd10 (f) and rd10/Serpinf1^-/- (g) mice as a function of light intensity (cd/s.m², x-axis), with treatments as indicated in panels. The number of mice evaluated for the data shown in Panels d-g was five (n = 5) for each rd10, rd10/Serpinf1^-/- and wild type. Each data point represents the average ± SD of each genotype, analyzed by ANOVA with Dunnett’s multiple comparisons. Statistical significance between H105A and vehicle is indicated by ##p ≤ 0.01, ###p ≤ 0.001, ####p ≤ 0.0001, and between H105A and 17-mer by **p ≤ 0.01, ***p ≤ 0.001, ****p ≤ 0.0001.

For `CC[C@H](C)[C@H](NC(=O)[C@H](CC(=O)O)NC(=O)[C@@H]1CCCN1C(=O)[C@H](CO)NC(=O)[C@H](CO)NC(=O)[C@@H](NC(=O)[C@H](CC(C)C)NC(=O)[C@H](CC(=O)O)NC(=O)[C@H](Cc1ccc(O)cc1)NC(=O)[C@H](Cc1ccc(O)cc1)NC(=O)[C@H](CC(C)C)NC(=O)[C@H](C)NC(=O)[C@H](CCCNC(=N)N)NC(=O)[C@H](C)NC(=O)[C@@H](NC(=O)[C@@H](NC(=O)[C@H](CO)NC(=O)[C@H](CCC(=O)O)NC(=O)[C@@H](NC(=O)[C@H](CCCNC(=N)N)NC(=O)[C@H](CCC(N)=O)NC(=O)[C@H](CCC(=O)O)NC(=O)[C@H](C)NC(=O)CNC(=O)[C@H](CC(C)C)NC(=O)[C@@H](N)CO)[C@@H](C)O)[C@@H](C)CC)[C@@H](C)CC)[C@@H](C)CC)C(=O)N[C@@H](Cc1c[nH]cn1)C(=O)NCC(=O)N[C@H](C(=O)O)[C@@H](C)O` [29-mer[H105A]] (H-SLGAEQRTESIIARALYYDLISSPDIHGT-OH), the “PS externalization / photoreceptor cell death vs vehicle” value [1] was “no reduction in photoreceptor cell death” and the “PS externalization / photoreceptor cell death vs vehicle” value [2] was “no reduction in photoreceptor cell death”.
For `CC[C@H](C)[C@H](NC(=O)[C@H](CC(=O)O)NC(=O)[C@@H]1CCCN1C(=O)[C@H](CO)NC(=O)[C@H](CO)NC(=O)[C@@H](NC(=O)[C@H](CC(C)C)NC(=O)[C@H](CC(=O)O)NC(=O)[C@H](Cc1ccc(O)cc1)NC(=O)[C@H](Cc1ccc(O)cc1)NC(=O)[C@H](CC(C)C)NC(=O)[C@H](C)NC(=O)[C@H](CCCNC(=N)N)NC(=O)[C@H](Cc1c[nH]cn1)NC(=O)[C@@H](NC(=O)[C@@H](NC(=O)[C@H](CO)NC(=O)[C@H](CCC(=O)O)NC(=O)[C@@H](NC(=O)[C@H](CCCNC(=N)N)NC(=O)[C@H](CCC(N)=O)NC(=O)[C@H](CCC(=O)O)NC(=O)[C@H](C)NC(=O)CNC(=O)[C@H](CC(C)C)NC(=O)[C@@H](N)CO)[C@@H](C)O)[C@@H](C)CC)[C@@H](C)CC)[C@@H](C)CC)C(=O)N[C@@H](Cc1c[nH]cn1)C(=O)NCC(=O)N[C@H](C(=O)O)[C@@H](C)O` [29-mer] (H-SLGAEQRTESIIHRALYYDLISSPDIHGT-OH), the “PS externalization / photoreceptor cell death vs vehicle” value [1] was “no reduction in photoreceptor cell death” and the “PS externalization / photoreceptor cell death vs vehicle” value [2] was “no reduction in photoreceptor cell death”.
“AlexaFl-QATESIIHRALYYDLIS-COOH [AlexaFl-488-R99A, R99A peptide conjugated to Alexa Fluor 488 dye]” was tested, and the “ERG a-wave and b-wave retinal function” value [3] was “showed no improvement”.
In the case of “AlexaFl-QRTESIIARALYYDLIS-COOH [AlexaFl-488-H105A, H105A peptide conjugated to Alexa Fluor 488 dye]”, the “ERG a-wave and b-wave retinal function” value [3] is reported as “improved retinal function”.
“AlexaFl-QRTESIIHRALYYDLIS-COOH [AlexaFl-488-17-mer, 17-mer peptide conjugated to Alexa Fluor 488 dye]” was tested, and the “ERG a-wave and b-wave retinal function” value [3] was “improved retinal function”.
